Results on two compounds are retold here after patent US11723907B2, “Anti-aging compounds” (THE CLEVELAND CLINIC FOUNDATION, priority 2017, dated 2023).

Data set [1] concerns normal human fibroblasts (NHDF) and stromal cells isolated from human normal bone marrow. The data set is described as follows: Replicative lifespan (RLS) of normal cells in tissue culture. Format: cell-based. To be noted: normal fibroblasts and mesenchymal cells. An excerpt: (§1) FIGS. 1A-1I provide graphs and images showing a new high throughput method for simultaneous detection of senescence associated SAβG activity and ATP in culture of normal pre-aged cells identified two potent anti-aging scaffolds. (A). General schema of HTS. (B). […] (C). Structures and corresponding tautameric forms of lead compounds. (D) Evaluation of possible genotoxic effect of experimental drugs in modified Ames test. 4-Nitroquinoline 1-oxide (4NQO) was used as a positive control. […] The general schema of RLS measurement in different cell types. (F) VA and N2N1 considerably extend RLS of normal human fibroblasts (NHDF) and stromal cells isolated from human normal bone marrow. (G). […] (I). Upper panel: Morphological appearance of NHDF at late passages with or without treatment. Lower panel: Cells were also fixed in para-formaldehyde and stained to detect SAβG.
(§2) The inventors developed a new high-throughput screening (HTS) method for identification of anti-aging drugs (FIG. 1). The novel method was specifically designed for simultaneous detection of β-galactosidase activity in cell lysate followed by ATP detection by standard luciferase based assay. […] Altogether, the procedure allowed a simultaneous quantifiable detection of senescence associated β-galactosidase (SAβG) activity and evaluation of ATP level as a sign of improved proliferative capacity or cytotoxicity. […]

The test system of a further data set is fibroblasts. As to the kind of experiment: Gene expression analysis of fibroblasts (RNAseq). Format: cell-based. To be noted: RNAseq exome.
Data set [2] has as its system fibroblasts derived from a patient diagnosed with Bloom syndrome. As to the kind of experiment: RLS of Bloom syndrome fibroblasts. Format: cell-based, human.
Description: as §1

The subject of another data set is NHDF. As to the kind of experiment: SAβG staining of NHDF at late passages. Format: cell-based, human.
Description: as §1, §2

Data set [3] concerns HSC/progenitors from normal bone marrows. The data set is described as follows: CFU and LTC-IC assays, normal bone marrow. Format: cell-based, human. The note with it: for colonies formation: tissue culture derived from normal bone marrows; for total number of cells at end of 1st part of LTC-IC assay: versus untreated samples. The source says: FIGS. 2A-2G provide graphs and images showing N2N1 and VA support HSC/progenitors populations under pressure of differentiation and tissue culture stress in vitro and in vivo. General schema of CFU (A) and LTC-IC assays (B). […] Representative result of three NBM is shown. (D) The morphology of cells at the end of 1st part of LTC-IC assay is shown. The total number of cells at this step of experiment was always larger in the samples treated with experimental drugs. (E) Treatment of mice with N2N1 promotes maintenance of normal HSC in vivo. Competitive repopulation assay performed on CD45.2 mice treated with N2N1. Summary of four animals, three hematopoietic tissues. […] Representative result of three patients is shown.
While these compounds may have many applications, the inventors have focused on potential usage of these agents to improve the function of HSC in BMF. They have first applied them in a battery of tissue culture assays measuring i) exhaustion kinetics of HSC and ii) hematologic toxicity. […] The inventors then focused our studies on HSC performance measured in CFU assay and in LTC-IC (FIG. 2), the best in vitro surrogate assay for the quantification and functional assessment of HSCs. The potential positive impact of identified pro-survival catalysts on viability and propagation of HSC was evaluated in methylcellulose cultures, classic CFU assay, long-term culture colony-initiating (LTC-IC) cell assays (FIGS. 2A, B and C) and competitive repopulation assay based on CD45.1/2 mouse model (FIG. 2E).
As a starting point for clinical application of identified redox catalysts, the inventors tested them on their ability to stimulate hematopoiesis in normal and damaged bone marrow cells, isolated from the patients with severe AA (FIGS. 2C and F). Very promising data was obtained, confirming the original idea that these small molecules can support propagation of both normal HSC and stem cells presented in damaged or disease bone marrow.

Data set [4] has as its system bone marrow cells from aplastic anemia patients. The data set is described as follows: Colony assay, aplastic anemia bone marrow. Format: cell-based, human. The note with it: tissue culture derived from aplastic anemia patients. The source says:
While performing a multidrug screen for the agents that could simultaneously decrease senescence and overcome proliferative block in pre-senescent mesenchymal cells, the inventors identified two promising lead compounds violuric acid (VA) and 1-naphthoquinone-2-monoxime (N2N1). […] In term of hematopoietic stem cells (HSC) these agents prolonged the availability of HSC in methylcellulose (replicative/serial re-plating) experiments, long-term culture initiating cell assays (LTC-IC) and increased the performance of HSC in a competitive repopulation assay, the CD45.1/2 model. Furthermore, the inventors observed colonies formation in methylcellulose colony assay, after application of these drugs to the mononucleocyte fraction of bone marrow isolated from the patients diagnosed with severe AA. […] These compounds belong to a family of redox catalysts with unique chemical structure that shares a combined electrophile-nucleophile potential, a feature that renders these molecules effective anti-aging treatment in various biological model systems.
FIGS. 2A-2G provide graphs and images showing N2N1 and VA support HSC/progenitors populations under pressure of differentiation and tissue culture stress in vitro and in vivo. General schema of CFU (A) and LTC-IC assays (B). […] Representative result of three NBM is shown. (D) The morphology of cells at the end of 1st part of LTC-IC assay is shown. […]

The next data set relates to cancer cell lines. The data set is described as follows: Treatment of cancer cell lines. Format: cell-based.
For data set [5], the system named is hematopoietic colony assays. As to the kind of experiment: Hematologic toxicity in hematopoietic colony assays. Format: cell-based. An excerpt: They have first applied them in a battery of tissue culture assays measuring i) exhaustion kinetics of HSC and ii) hematologic toxicity. […] The inventors then focused our studies on HSC performance measured in CFU assay and in LTC-IC (FIG. 2), the best in vitro surrogate assay for the quantification and functional assessment of HSCs.

For the compound `O=C1/C(=N/O)C=Cc2ccccc21` [N2N1, 1-naphthoquinone-2-monoxime], the “expansion above regular replicative life span” value in data set [1] is around 25 doublings. The “expression of stem cell markers” value in the data set with fibroblasts is reported as “revealed the expression of some stem cell markers”. Further, in data set [2], the “response of RLS to treatment” value was “responded positively”. Also, the “number of SAβG positive cells” value in the data set on NHDF is recorded as “substantially decreased”. For the same compound, in data set [3], the colonies formation entry is “promote colonies formation” and the “total number of cells at end of 1st part of LTC-IC assay” value is “always larger”. In addition, in data set [4], the colonies formation entry is “promote colonies formation”. Further, the toxicity / proliferation result with cancer cell lines is listed as “partially toxic”. In addition, in data set [5], the LD50 came out at 15 µM.
For `O=C1NC(=O)C(=NO)C(=O)N1` [VA, 2,4,5,6(1H,3H)-pyrimidine-tetrone 5-oxime], the “expansion above regular replicative life span” value in data set [1] is reported as around 25 doublings. The “expression of stem cell markers” value in the data set with fibroblasts is given as “revealed the expression of some stem cell markers”. In data set [2], the “response of RLS to treatment” value is listed as “responded positively”. Also, the “number of SAβG positive cells” value with NHDF is “substantially decreased”. For the same compound, in data set [3], the colonies formation entry is “promote colonies formation” and the “total number of cells at end of 1st part of LTC-IC assay” value is given as “always larger”. The colonies formation entry in data set [4] is “promote colonies formation”. In addition, the toxicity / proliferation entry with cancer cell lines is listed as “neither toxic nor pro-proliferative”. The compound further displayed an LD50 in data set [5] of 5000 µM.
